In PMC12838644, “Dihydrotanshinone as a Natural Product-Based CYP17A1 Lyase Inhibitor for Hyperandrogenic Disorders” (Biomolecules, 2026):
Like-named read-outs stand apart in the source and are kept apart here.

Legend:
CYP21A2 = target: T1, CYP21A2 (Homo sapiens, UniProt P08686); test: CYP21A2 activity assay in transiently transfected HEK-293T cells; format: cell-based; conditions: for inhibition at 10 µM: read-out: % Inhibition CYP21A2
T1 construct: expressed in transfected cells; host or cells: HEK293 / HEK-293T
T1 sequence (P08686 1-495): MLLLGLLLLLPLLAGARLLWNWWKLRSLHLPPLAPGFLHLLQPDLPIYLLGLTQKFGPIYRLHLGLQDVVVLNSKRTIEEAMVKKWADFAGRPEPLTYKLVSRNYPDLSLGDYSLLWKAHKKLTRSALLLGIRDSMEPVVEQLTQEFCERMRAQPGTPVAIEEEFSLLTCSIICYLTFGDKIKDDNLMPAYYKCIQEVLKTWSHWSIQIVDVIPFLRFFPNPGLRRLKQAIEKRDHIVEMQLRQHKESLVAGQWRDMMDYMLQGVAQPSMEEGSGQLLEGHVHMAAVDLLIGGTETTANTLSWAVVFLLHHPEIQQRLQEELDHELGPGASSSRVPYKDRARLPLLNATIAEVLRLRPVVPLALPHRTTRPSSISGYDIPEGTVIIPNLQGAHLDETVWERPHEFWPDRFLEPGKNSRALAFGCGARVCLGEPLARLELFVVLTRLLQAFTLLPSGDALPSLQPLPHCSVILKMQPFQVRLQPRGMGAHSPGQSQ
Procedure: Transient transfections were performed using the CYP21A2 WT vector as described previously. HEK293 cells were seeded in six-well plates (3 × 10^5 cells/well). After 24 h, the growth medium was replaced, and cells were transfected using Lipofectamine 2000 (Thermo Fisher Scientific, Bedford, MA, USA) with 12.5 µg of plasmid (plasmid concentration: 1068 µg/mL). Twenty-four hours after transfection, transfected cells were replated in 24-well plates (1.5 × 10^5 cells/well) to ensure homogeneity of the cell population across the wells. Six hours after transfection, 2 mL of fresh medium was replaced, and the cells were cultured for 48 h. Cell growth was examined. […] DMSO was added to the negative control, and 10 µM abiraterone was added to the positive control, and the cells were incubated for 4 h. Functional assays were initiated by adding 1 µM unlabeled progesterone (using 10,000 cpm of [^14C]-progesterone as a tracer). After incubation at 37 °C for 1 h, the culture medium and cells were harvested. Steroids were extracted from the culture medium with ethyl acetate and isooctane (1:1 volume ratio), dried, and dissolved in dichloromethane. Steroids were separated by thin-layer chromatography (TLC), placed on a phosphor screen, and visualized using a Typhoon PhosphorImager FLA-7000 (GE Healthcare Bio-Sciences AB, Uppsala, Sweden). Image intensity was measured and quantified using ImageQuant TL v8 (Cytiva, Marlborough, MA, USA). The CYP21A2 enzyme activity was expressed as relative steroid conversion. Steroids were quantified as a percentage of radioactivity incorporated into […] to the total radioactivity measured in the whole sample and compared between the WT and variants. Cells were collected with trypsin and washed with 1× PBS to quantify the amount of protein. Results were analyzed from three technical replicates. To ensure a similar amount of CYP21A2 in each reaction, a Western blot analysis was performed to normalize the enzyme activity with the relative CYP21A2 expression.

CYP17A1 17,20-lyase = target: T2, CYP17A1 17,20-lyase (Homo sapiens, UniProt P05093); test: CYP17A1 17,20-lyase activity assay (DHEA from 17OH-pregnenolone, POR, CYP17A1 and cytochrome b5); format: biochemical; conditions: for Residual 17,20-lyase activity: % of DMSO control; for Lyase/CYP21A2 Selectivity Index: (% Inhibition Lyase)/(% Inhibition CYP21A2) at 10 µM (SM 10 µg/mL); for inhibition at 10 µM: read-out: % Inhibition CYP17A1-Lyase; for Lyase/OH Selectivity Index: (% Inhibition Lyase)/(% Inhibition OH) at 10 µM (SM 10 µg/mL)
T2 sequence (P05093 1-508): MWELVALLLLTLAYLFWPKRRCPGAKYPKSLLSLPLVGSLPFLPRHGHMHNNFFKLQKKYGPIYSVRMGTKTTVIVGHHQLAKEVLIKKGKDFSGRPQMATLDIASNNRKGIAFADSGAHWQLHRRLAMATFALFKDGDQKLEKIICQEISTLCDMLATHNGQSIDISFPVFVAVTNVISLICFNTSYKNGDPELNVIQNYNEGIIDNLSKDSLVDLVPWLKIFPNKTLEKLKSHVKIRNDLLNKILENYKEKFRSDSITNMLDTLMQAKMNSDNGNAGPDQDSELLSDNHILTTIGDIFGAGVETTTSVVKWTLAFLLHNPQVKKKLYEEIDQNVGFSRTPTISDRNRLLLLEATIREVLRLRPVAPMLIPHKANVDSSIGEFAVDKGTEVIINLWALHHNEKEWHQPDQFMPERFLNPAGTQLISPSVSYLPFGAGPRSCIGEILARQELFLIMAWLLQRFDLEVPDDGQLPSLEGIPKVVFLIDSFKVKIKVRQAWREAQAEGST
Procedure: Assay of CYP17A1 17α-hydroxylase and 17,20-lyase activities were performed as described previously. The 17α-hydroxylase activity was measured by conversion of progesterone to 17OH-progesterone, while production of DHEA from 17OH-pregnenolone was used for monitoring the 17,20-lyase activity of CYP17A1. In vitro CYP17A1 assays were performed using a liposome system consisting of human p450 oxidoreductase (POR) and CYP17A1 at a ratio of 3:4 (POR: CYP17A1). […] The drugs were added to the final mixture and incubated for 1h before the catalytic reaction was initiated by the addition of NADPH to 1 mM final concentration. Radiolabeled [^14C]-progesterone (10,000 cpm in 1 µM) was used as a tracer in each reaction. Steroids were extracted and separated by thin-layer chromatography (TLC) on silica gel (SIL G/UV254) TLC plates (Macherey-Nagel, Oensingen, Switzerland) as previously described.
In vitro CYP17A1 17,20-lyase activity assays were performed using POR, CYP17A1 and cytochrome b5 as described previously. The final assay mixture consisted of proteins, 10 mM MgCl2, 6 mM KOAc, 0.05 mg/mL DLPC, 1 mM reduced glutathione in 50 mM HEPES-NaOH buffer (pH 7.4), and the reaction volume was 200 μL. The drugs were added to the final mixture and incubated for 1h before the catalytic reaction was initiated by the addition of NADPH to 1 mM final concentration. Radiolabeled [^3H]-17OH-pregnenolone (50,000 cpm in 1 µM) was added as a tracer and the enzyme activity was measured by using the scintillation counter in the water release assay.

[1] = 10 µM (SM extract 10 µg/mL), transfected HEK-293T cells, calculated as 100% − % residual activity
[2] = 10 µM (SM extract 10 µg/mL), calculated as 100% − % residual activity

Row | Structure (SMILES) | Residual CYP21A2 activity (CYP21A2; % of DMSO control, 10 µM, transfected HEK-293T cells) [%] | inhibition at 10 µM (CYP21A2; HEK-293T) [%] | Residual 17,20-lyase activity (CYP17A1 17,20-lyase; 10 µM (SM extract 10 µg/mL)) [%] | Lyase/CYP21A2 Selectivity Index (CYP17A1 17,20-lyase) | inhibition at 10 µM (CYP17A1 17,20-lyase) [%] | % Inhibition CYP21A2 (CYP21A2; [1]) | inhibition at 10 µM (CYP21A2; [1]) [%] | inhibition at 10 µM (CYP17A1 17,20-lyase; [2]) [%] | Lyase/OH Selectivity Index (CYP17A1 17,20-lyase)
1 | Cc1cccc2c3c(ccc12)C1=C(C(=O)C3=O)[C@@H](C)CO1 [DT, dihydrotanshinone I] | 85 | 14.9 | 43 | 3.80 | 56.6 | – | – | – | –
2 | Cc1coc2c1C(=O)C(=O)c1c-2ccc2c(C)cccc12 [TAI, tanshinone I] | – | – | 72 | High ^c | – | no meaningful inhibition | < 1 | 28.2 | High ^c
3 | Cc1coc2c1C(=O)C(=O)c1c-2ccc2c1CCCC2(C)C [TAII, tanshinone IIA] | – | – | 57 | High ^c | – | no meaningful inhibition | < 1 | 43 | High ^c
